“And” between values parts separate entries of the source, which are not always exact repeats. Equal entries are not always repeated. Toxic doses and inconclusive results are not listed.
Tested on: P388 leukemia ip, CD2F1 mice, survival T/C
Experiment: NCI In Vivo Anticancer Drug Screen. Data for tumor model P388 Leukemia (intraperitoneal) in CD2F1 (CDF1) mice
Conditions: endpoint: median survival time, higher = longer survival
Summary of the method: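 Mice carrying the transplanted tumor received test compound or vehicle. Survival was recorded in each group, and the value is the treated-group measurement divided by that of the vehicle-treated control group.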

[1] = dose: 60.0 mg/kg/injection, schedule: Q01DX005 (ip), vehicle: saline
[2] = dose: 120.0 mg/kg/injection, schedule: Q01DX005 (ip), vehicle: saline
[3] = dose: 240.0 mg/kg/injection, schedule: Q01DX005 (ip), vehicle: saline
[4] = dose: 50.0 mg/kg/injection, schedule: Q01DX005 (ip), vehicle: saline with Tween-80
[5] = dose: 100.0 mg/kg/injection, schedule: Q01DX005 (ip), vehicle: saline with Tween-80
[6] = dose: 200.0 mg/kg/injection, schedule: Q01DX005 (ip), vehicle: saline with Tween-80
[7] = dose: 50.0 mg/kg/injection, schedule: Q01DX005 (ip), vehicle: Klucel (hydroxypropylcellulose) (HPC)
[8] = dose: 100.0 mg/kg/injection, schedule: Q01DX005 (ip), vehicle: Klucel (hydroxypropylcellulose) (HPC)
[9] = dose: 200.0 mg/kg/injection, schedule: Q01DX005 (ip), vehicle: Klucel (hydroxypropylcellulose) (HPC)
[10] = dose: 50.0 mg/kg/injection, schedule: Q01DX009 (ip), vehicle: Klucel (hydroxypropylcellulose) (HPC)
[11] = dose: 100.0 mg/kg/injection, schedule: Q01DX009 (ip), vehicle: Klucel (hydroxypropylcellulose) (HPC)
[12] = dose: 50.0 mg/kg/injection, schedule: Q01DX009 (ip), vehicle: saline
[13] = dose: 100.0 mg/kg/injection, schedule: Q01DX009 (ip), vehicle: saline
[14] = dose: 200.0 mg/kg/injection, schedule: Q01DX009 (ip), vehicle: saline
[15] = dose: 200.0 mg/kg/injection, schedule: Q01DX009 (ip), vehicle: Klucel (hydroxypropylcellulose) (HPC)
[16] = dose: 60.0 mg/kg/injection, schedule: Q01DX005 (ip), vehicle: saline with Tween-80
[17] = dose: 120.0 mg/kg/injection, schedule: Q01DX005 (ip), vehicle: saline with Tween-80
[18] = dose: 240.0 mg/kg/injection, schedule: Q01DX005 (ip), vehicle: saline with Tween-80
[19] = dose: 25.0 mg/kg/injection, schedule: Q04DX003 (ip), vehicle: saline
[20] = dose: 50.0 mg/kg/injection, schedule: Q04DX003 (ip), vehicle: saline
[21] = dose: 100.0 mg/kg/injection, schedule: Q04DX003 (ip), vehicle: Klucel (hydroxypropylcellulose) (HPC)
[22] = dose: 200.0 mg/kg/injection, schedule: Q04DX003 (ip), vehicle: Klucel (hydroxypropylcellulose) (HPC)

## O=C(O)CC[P+](c1ccccc1)(c1ccccc1)c1ccccc1
dose: 25.0 mg/kg/injection, schedule: Q01DX009 (ip), vehicle: water
  T/C: 105 % of control
dose: 50.0 mg/kg/injection, schedule: Q01DX009 (ip), vehicle: water
  T/C: 102 % of control
dose: 100.0 mg/kg/injection, schedule: Q01DX009 (ip), vehicle: water
  T/C: 105 % of control
dose: 200.0 mg/kg/injection, schedule: Q01DX009 (ip), vehicle: water
  T/C: 95 % of control
dose: 400.0 mg/kg/injection, schedule: Q01DX009 (ip), vehicle: water
  T/C: 94 % of control

## CCOc1c(N=Nc2ccccc2Cl)c(C)nn1C(=S)SC
dose: 60.0 mg/kg/injection, schedule: Q01DX005 (ip), vehicle: Klucel + Tween-80
  T/C: 103 % of control
dose: 120.0 mg/kg/injection, schedule: Q01DX005 (ip), vehicle: Klucel + Tween-80
  T/C: 112 % of control
dose: 240.0 mg/kg/injection, schedule: Q01DX005 (ip), vehicle: Klucel + Tween-80
  T/C: 103 % of control

## CCc1cc(-c2cc(CC)nc(N)n2)nc(N)n1
[1]
  T/C: 97 % of control
[2]
  T/C: 104 % of control
[3]
  T/C: 100 % of control

## O=P1(c2ccccc2)Cc2ccccc2N1Cc1ccccc1 (stereo unspecified)
[4]
  T/C: 100 % of control
[5]
  T/C: 103 % of control
[6]
  T/C: 104 % of control

## O=c1[nH]c(=O)c2cc(Cl)cc(Cl)c2[nH]1
dose: 50.0 mg/kg/injection, schedule: Q01DX001 (ip), vehicle: saline with Tween-80
  T/C: 90 % of control
dose: 100.0 mg/kg/injection, schedule: Q01DX001 (ip), vehicle: saline with Tween-80
  T/C: 90 % of control
dose: 200.0 mg/kg/injection, schedule: Q01DX001 (ip), vehicle: saline with Tween-80
  T/C: 90 % of control

## CC1CCCCN1C(=O)C(c1ccccc1)(c1ccccc1)c1ccccc1 (stereo unspecified)
[7]
  T/C: 99 % of control
[8]
  T/C: 99 % of control
[9]
  T/C: 93 % of control

## S=C(Nc1ccc(Cl)c(Cl)c1)SCc1ccc2c(c1)OCO2
dose: 12.5 mg/kg/injection, schedule: Q01DX009 (ip), vehicle: Klucel (hydroxypropylcellulose) (HPC)
  T/C: 116 % of control
dose: 25.0 mg/kg/injection, schedule: Q01DX009 (ip), vehicle: Klucel (hydroxypropylcellulose) (HPC)
  T/C: 120 % of control
[10]
  T/C: 121 % of control
[11]
  T/C: 112 % of control and 97 % of control

## O=[N+]([O-])c1cccc(NC(c2ccccc2)S(=O)(=O)O)c1 (stereo unspecified)
[12]
  T/C: 104 % of control
[13]
  T/C: 114 % of control
[14]
  T/C: 106 % of control

## O=C(ON1C(=O)CCC1=O)C1CCC(CN2C(=O)C=CC2=O)CC1 (stereo unspecified)
dose: 100.0 mg/kg/injection, schedule: Q04DX002 (ip), vehicle: saline with Tween-80
  T/C: 120 % of control

## C=CCC12CC(C)OC1=Nc1ccccc1NC2=O (stereo unspecified)
[4]
  T/C: 98 % of control
[5]
  T/C: 100 % of control
[6]
  T/C: 104 % of control

## NC(=O)/C(N=Nc1cc(S(=O)(=O)O)ccc1Cl)=N\Nc1cc(S(=O)(=O)O)ccc1Cl
[7]
  T/C: 100 % of control
[8]
  T/C: 91 % of control
[9]
  T/C: 94 % of control

## CC[C@]12CCCN3CCc4c(n(c5ccccc45)C(=O)C1)[C@@H]32
[10]
  T/C: 95 % of control
[11]
  T/C: 107 % of control
[15]
  T/C: 91 % of control

## CN(C)c1ccc(Cc2c[nH]c3ccccc3c2=O)cc1
[16]
  T/C: 94 % of control
[17]
  T/C: 92 % of control
[18]
  T/C: 95 % of control

## CCN1/C(=C/C=C/C=C\C=C\c2sc3ccc4ccccc4c3[n+]2CC)Sc2ccc3ccccc3c21
dose: 1.56 mg/kg/injection, schedule: Q04DX002 (ip), vehicle: saline with Tween-80
  T/C: 153 % of control and 168 % of control
dose: 3.12 mg/kg/injection, schedule: Q04DX002 (ip), vehicle: saline with Tween-80
  T/C: 166 % of control
dose: 6.25 mg/kg/injection, schedule: Q04DX002 (ip), vehicle: saline with Tween-80
  T/C: 156 % of control and 171 % of control
dose: 12.5 mg/kg/injection, schedule: Q04DX002 (ip), vehicle: saline with Tween-80
  T/C: 159 % of control and 171 % of control and 186 % of control

## COc1cc2c(c3c1C(=O)c1c(cc4c(c1O)C(OC)CC(C)(O)C4)C3=O)OC1OC2(C)C(O)C(N(C)C)C1O (stereo unspecified)
dose: 1.25 mg/kg/injection, schedule: Q01DX009 (ip), vehicle: other
  T/C: 117 % of control
dose: 2.5 mg/kg/injection, schedule: Q01DX009 (ip), vehicle: other
  T/C: 98 % of control
dose: 5.0 mg/kg/injection, schedule: Q01DX009 (ip), vehicle: other
  T/C: 102 % of control
dose: 20.0 mg/kg/injection, schedule: Q01DX009 (ip), vehicle: other
  T/C: 124 % of control
dose: 40.0 mg/kg/injection, schedule: Q01DX009 (ip), vehicle: other
  T/C: 123 % of control
dose: 200.0 mg/kg/injection, schedule: Q01DX009 (ip), vehicle: other
  T/C: 179 % of control

## COc1cc(OC)cc(C(C)(C)C)c1
[12]
  T/C: 97 % of control
[13]
  T/C: 100 % of control
[14]
  T/C: 107 % of control

## CNCCSSCCN
[19]
  T/C: 100 % of control
[20]
  T/C: 90 % of control
dose: 100.0 mg/kg/injection, schedule: Q04DX003 (ip), vehicle: saline
  T/C: 86 % of control

## COc1ccc(-c2csc(C)n2)cc1OC
[21]
  T/C: 106 % of control
[22]
  T/C: 106 % of control
dose: 400.0 mg/kg/injection, schedule: Q04DX003 (ip), vehicle: Klucel (hydroxypropylcellulose) (HPC)
  T/C: 103 % of control

## CCC1CN2CCc3cc(OC)c(OC)cc3C2C(C2(O)C(=O)Nc3ccccc32)C1=O (stereo unspecified)
[10]
  T/C: 99 % of control
[11]
  T/C: 100 % of control
[15]
  T/C: 100 % of control

## CC(C)(Cl)C1ON1C(C)(C)C (stereo unspecified)
[16]
  T/C: 107 % of control
[17]
  T/C: 107 % of control
[18]
  T/C: 108 % of control

## CC1OC1C(=O)C1(O)C(C)C(O)C23OC2(C(O)c2c(O)cccc2C3=O)C1O (stereo unspecified)
dose: 1.0 mg/kg/injection, schedule: Q01DX009 (ip), vehicle: Klucel (hydroxypropylcellulose) (HPC)
  T/C: 104 % of control and 118 % of control
dose: 2.0 mg/kg/injection, schedule: Q01DX009 (ip), vehicle: Klucel (hydroxypropylcellulose) (HPC)
  T/C: 154 % of control
dose: 4.0 mg/kg/injection, schedule: Q01DX009 (ip), vehicle: Klucel (hydroxypropylcellulose) (HPC)
  T/C: 121 % of control

## CCn1c2ccccc2c2cc(N=Nc3cc4cc5ccccc5cc4cc3N)ccc21
[21]
  T/C: 101 % of control
[22]
  T/C: 93 % of control

## COc1cc2c(OC)c(c1)CCC1=CC(=O)C(=CC1=O)CC2
dose: 100.0 mg/kg/injection, schedule: Q01DX001 (ip), vehicle: Klucel (hydroxypropylcellulose) (HPC)
  T/C: 99 % of control
dose: 200.0 mg/kg/injection, schedule: Q01DX001 (ip), vehicle: Klucel (hydroxypropylcellulose) (HPC)
  T/C: 96 % of control

## O=C1NC(=O)C2(F)CC3(CCCCC3)C2N1 (stereo unspecified)
dose: 1.5 mg/kg/injection, schedule: Q01DX005 (ip), vehicle: Klucel (hydroxypropylcellulose) (HPC)
  T/C: 100 % of control
dose: 3.0 mg/kg/injection, schedule: Q01DX005 (ip), vehicle: Klucel (hydroxypropylcellulose) (HPC)
  T/C: 102 % of control
dose: 6.0 mg/kg/injection, schedule: Q01DX005 (ip), vehicle: Klucel (hydroxypropylcellulose) (HPC)
  T/C: 94 % of control
dose: 12.5 mg/kg/injection, schedule: Q01DX001 (ip), vehicle: Klucel (hydroxypropylcellulose) (HPC)
  T/C: 103 % of control

## COc1cc(/C=N/N2CN(C(C)C(=O)O)B(Nc3ncccn3)N=C2N)cc(OC)c1 (stereo unspecified)
[1]
  T/C: 103 % of control
[2]
  T/C: 111 % of control
[3]
  T/C: 112 % of control

## CN1CCC(Br)(C(=O)c2ccccc2)CC1
dose: 37.5 mg/kg/injection, schedule: Q01DX009 (ip), vehicle: saline with Tween-80
  T/C: 100 % of control
dose: 75.0 mg/kg/injection, schedule: Q01DX009 (ip), vehicle: saline with Tween-80
  T/C: 100 % of control
dose: 150.0 mg/kg/injection, schedule: Q01DX009 (ip), vehicle: saline with Tween-80
  T/C: 104 % of control

## COc1cccc2c1C(=O)c1c(O)c3c(c(O)c1C2=O)C[C@@](O)(C(C)=O)CC3OC1CC(NC(=O)CCCN)C(O)C(C)O1 (stereo partly specified)
dose: 6.25 mg/kg/injection, schedule: Q04DX003 (ip), vehicle: saline
  T/C: 98 % of control
dose: 12.5 mg/kg/injection, schedule: Q04DX003 (ip), vehicle: saline
  T/C: 97 % of control
[19]
  T/C: 100 % of control
[20]
  T/C: 104 % of control

From PubChem BioAssay AID330 (DTP/NCI, 2004)
